According to patent publication EP0818467B1, “Aligned peptide array and a rational and rapid method for the detection of a binding or interaction site of a protein by using the same” (NEC CORPORATION, priority 1996, dated 1998):

How the values were obtained:
[1] = test system: regulatory region of protein kinase C (PKC); assay: aligned peptide array membrane reacted with tritium-labeled phorbol ester, autoradiography; format: binding; details: peptide segments of formula (III); phorbol ester labeled with tritium (3H)
Procedure: First of all, an amino acid sequence corresponding to a portion of the regulatory region of protein kinase C (PKC) was divided as shown in the following formula (III), and the corresponding peptide segments were synthesized. Then, an aligned peptide array membrane was prepared in the same manner as given in Example 1. [formula]
(§1) The aligned peptide array membrane was reacted with a phorbol ester labeled with tritium (^3H) and then brought into contact with a photographic film. Thus, the reaction spot was identified by autoradiography.

[2] = test system: third peptide segment, in which one amino acid had been replaced; assay: aligned peptide array membrane with one amino acid replaced in the third peptide segment, autoradiography; format: binding; details: formula (IV): G (glycine) in the third peptide segment replaced by E (glutamate)
Procedure: as §1
In the third peptide segment detected in Example 2, one amino acid was replaced as shown in the following formula (IV). Excepting this modification, detection was carried out in the same manner as in Example 2. [formula]

## CCCCCCCCCCCCCC(=O)O[C@@H]1[C@@H](C)[C@@]2(O)[C@@H](C=C(CO)C[C@]3(O)C(=O)C(C)=C[C@@H]23)[C@@H]2C(C)(C)[C@]12OC(C)=O [phorbol ester]
[1]
  exposure to radiation at the position of the peptide segment: exposure to radiation was observed at the position of the peptide segment corresponding to the third sequence segment of formula (III)
[2]
  exposure to radiation at the position of the peptide segment: no exposure to radiation was observed at the position of the third peptide segment
